In patent US8778298B2, “Isotope labeled 2-arylpropionic acid compounds and process for production of same, and molecular probe for positron emission tomography and method for imaging of cyclooxygenase and the like using same” (Riken, priority 2009, dated 2014):

Key:
Format in all cases: in vivo
[1] = tested on: cyclooxygenase-2; experiment: PET imaging using brain inflammation model rat (LPS injected into left striatum)
Description: PET was performed using a brain inflammation model rat for the [^11C]ketoprofen methyl ester (8) synthesized in Example 6. In the experiment, a trace amount, 0.5 μg, of lipopolysaccharide (LPS) that is a constituent of a gram-negative bacteria cell wall outer membrane was injected into the left striatum of a rat, thereby inducing brain inflammation (Hunter R L, Dragicevic N, Seifert K, Choi D Y, Liu M, Kim H C, Cass W A, Sullivan P G, Bing G. Inflammation induces mitochondrial dysfunction and dopaminergic neurodegeneration in the nigrostriatal system. J. Neurochem. 2007100:5:1375-86.). The [^11C]ketoprofen methyl ester (8) was administered to a rat after 1 day from injection of LPS through a caudal vein, PET was performed for 45 minutes using a PET apparatus for small animals (manufactured by microPET, SIMENS). The injection solution of the [^11C]ketoprofen methyl ester (radioactivity 72 to 74 MBq) was prepared by diluting with saline to 1.0 CC volume. In order to further study an effect of inhibiting bonds by a non-RI labeled body, an injection solution added with 10 mg/kg of ketoprofen methyl ester (final concentration of a solvent was 5% DMSO, 5% tween20) was prepared. On completion of PET imaging, a rat brain section was prepared and an Ex vivo autoradiography (ARG) experiment was performed. In the experiment, the rat was perfused with saline, and a section prepared with 2 mm thickness, which was obtained from the brain taken out from the rat, was exposed on an imaging plate BAS SR-2040 (manufactured by Fujifilm Corporation) for 1 hour to read using a fluoroimage analyzer (FLA7000). In order to identify an expression site of cyclooxygenase-2, chemical staining of an immune tissue in a brain section was performed using a specific antibody. That is, 20 μm of a frozen section prepared from the brain section used in the autoradiography mentioned above and pasted on a slide glass was incubated with anti-cyclooxygenase-2 (rabbit IgG, polyclonal antibody, manufactured by Cayman) diluted to PBS-T at a concentration of 200 times as a primary antibody at 4° C. overnight. […]

[2] = tested on: cyclooxygenase-2; experiment: Ex vivo autoradiography (ARG) of rat brain section after PET, compared with cyclooxygenase-2 immunostaining
Description: PET was performed using a brain inflammation model rat for the [^11C]ketoprofen methyl ester (8) synthesized in Example 6. In the experiment, a trace amount, 0.5 μg, of lipopolysaccharide (LPS) that is a constituent of a gram-negative bacteria cell wall outer membrane was injected into the left striatum of a rat, thereby inducing brain inflammation (Hunter R L, Dragicevic N, Seifert K, Choi D Y, Liu M, Kim H C, Cass W A, Sullivan P G, Bing G. Inflammation induces mitochondrial dysfunction and dopaminergic neurodegeneration in the nigrostriatal system. J. Neurochem. 2007100:5:1375-86.). The [^11C]ketoprofen methyl ester (8) was administered to a rat after 1 day from injection of LPS through a caudal vein, PET was performed for 45 minutes using a PET apparatus for small animals (manufactured by microPET, SIMENS). The injection solution of the [^11C]ketoprofen methyl ester (radioactivity 72 to 74 MBq) was prepared by diluting with saline to 1.0 CC volume. […] In the experiment, the rat was perfused with saline, and a section prepared with 2 mm thickness, which was obtained from the brain taken out from the rat, was exposed on an imaging plate BAS SR-2040 (manufactured by Fujifilm Corporation) for 1 hour to read using a fluoroimage analyzer (FLA7000). […]

[3] = tested on: APP-Tg mouse brain; experiment: PET imaging of Alzheimer disease model animal (APP-Tg mouse vs wild type mouse)
Text: PET images were taken using an Alzheimer disease model mouse for the [^11C]ketoprofen methyl ester (21) synthesized in Example 6. For the Alzheimer disease model mouse, a transgenic mouse (APP-Tg) excessively expressing amyloid precursor protein (APP) in familial Alzheimer disease was purchased from Taconic Farms, Inc. USA to be used. In 24 months old when accumulation of amyloid β protein was confirmed as pathological change of Alzheimer disease, the [^11C]ketoprofen methyl ester (21) was administered through a caudal vein, and PET images were taken for 30 minutes using a PET apparatus for small animals (microPET, manufactured by SIMENS). The injection solution of the [^11C]ketoprofen methyl ester (21) (radioactivity 45 to 60 MBq) was prepared by diluting with saline to 1.0 CC volume. SUV (Standard Uptake Value)=tissue radioactivity in region of interest (MBq/g)÷[administration amount (MBq)/body weight (g)] was used as the index of an accumulation level, to compare with a brain of a wild type mouse that is a normal mouse in terms of an accumulation amount into the APP-Tg mouse brain.

accumulation in inflammation region with co-administered non-RI labeled ketoprofen methyl ester (specificity) ([1]; 10 mg/kg of non-RI labeled ketoprofen methyl ester added to injection solution): significantly reduced
passage through the blood-brain barrier (PET) ([1]; rat 1 day after 0.5 μg LPS into left striatum, tracer via caudal vein, PET 45 minutes): passed through the blood-brain barrier
SMILES: COC(=O)C([11CH3])c1cccc(C(=O)c2ccccc2)c1 (stereo not shown) [[^11C]ketoprofen methyl ester (8), [^11C]ketoprofen methyl ester]
accumulation of radioactivity in brain (addition average of PET images) ([1]; rat 1 day after LPS into left striatum, tracer via caudal vein, 45 minutes after administration): accumulated in an inflammation region around the LPS injected site in the left side of the brain
accumulation in ex vivo autoradiography (ARG) of rat brain section ([2]; 2 mm brain section taken on completion of PET imaging, LPS rat): accumulated specifically in an inflammation site
accumulated site versus immunostaining of cyclooxygenase-2 ([2]; 20 μm frozen section from ARG brain section, anti-cyclooxygenase-2 antibody, DAB method): correspond with a positive site of immunostaining of cyclooxygenase-2
accumulation amount (SUV) in brain, APP-Tg versus wild type mouse ([3]; 24 months old APP-Tg mouse, caudal vein, PET images in 25 minutes after 5 minutes from administration): highly accumulated in the APP-Tg mouse brain as compared with the wild type mouse brain
site of high accumulation versus reported site of amyloid β accumulation ([3]; APP-Tg mouse brain, compared with literature report (Am J Pathol. 1998)): corresponded with a site that was reported of accumulation of amyloid β
